From patent US8012956B2, “Tropane compounds” (Exelixis, Inc., priority 2007, dated 2011) come the findings set out here.

This assay concerns the target HSP90 (Homo sapiens, UniProt P07900). Kind of assay: HSP90 inhibition (HSP90 IC50). It counts as biochemical.
For the compound `NC(=O)c1ccc(C(=O)NC2CC3CCC(C2)N3c2ccc(C(=O)NC3CCCC3)cn2)cc1NCC1CC1` (stereo not drawn) [N4-(8-{5-[(cyclopentylamino)carbonyl]pyridin-2-yl}-8-azabicyclo[3.2.1]oct-3-endo-yl)-2-[(cyclopropylmethyl)amino]benzene-1,4-dicarboxamide], the IC50 was less than 500 nM. The compound `CC(=O)c1ccc(N2[C@@H]3CC[C@H]2C[C@@H](NC(=O)c2ccc(C(N)=O)c(NCCOC(C)C)c2)C3)nc1` [N4-[8-(5-acetylpyridin-2-yl)-8-azabicyclo[3.2.1]oct-3-endo-yl]-2-({2-[(1-methylethyl)oxy]ethyl}amino)benzene-1,4-dicarboxamide] came in with an IC50 of less than 500 nM.

Turning to `COc1cc(C(=O)N[C@H]2C[C@H]3CC[C@@H](C2)N3c2ccc(C(=O)C3CC3)cn2)c(C)cc1C(N)=O` [N-{8-[5-(cyclopropylcarbonyl)pyridin-2-yl]-8-azabicyclo[3.2.1]oct-3-endo-yl}-2-methyl-5-(methyloxy)benzene-1,4-dicarboxamide], the IC50 was less than 500 nM. For `CS(=O)(=O)CCNc1cc(C(=O)N[C@H]2C[C@H]3CC[C@@H](C2)N3c2ccc(C(N)=O)cn2)ccc1C(N)=O` [N4-{8-[5-(aminocarbonyl)pyridin-2-yl]-8-azabicyclo[3.2.1]oct-3-endo-yl}-2-{[2-(methylsulfonyl)ethyl]amino}benzene-1,4-dicarboxamide], the IC50 is less than 500 nM. Regarding `COc1cccc(C(=O)N[C@H]2C[C@H]3CC[C@@H](C2)N3c2ccc(C(=O)NCCO)cn2)c1C` [N-(2-hydroxyethyl)-6-[3-endo-({[2-methyl-3-(methyloxy)phenyl]carbonyl}amino)-8-azabicyclo[3.2.1]oct-8-yl]pyridine-3-carboxamide], the IC50 lay within 2000 to 10000 nM.

Compound `CC(=O)c1ccc(N2C3CCC2CC(NC(=O)c2cc(N[C@H]4CC[C@H](O)CC4)c(C(N)=O)cc2C)C3)nc1` (stereo partly drawn) [N-[8-(5-acetylpyridin-2-yl)-8-azabicyclo[3.2.1]oct-3-endo-yl]-5-[(trans-4-hydroxycyclohexyl)amino]-2-methylbenzene-1,4-dicarboxamide] returned an IC50 of less than 500 nM. The value for “N-[(1S,2S)-2-hydroxycyclopentyl]-6- [3-endo-({[2-methyl-3- (methyloxy)phenyl]oarbonyl}amino)- 8-azabicyclo[3.2.1]oct-8-yl]pyridine- 3-carboxamide” was 500 to 999 nM. Compound `CC[C@@H](C)Nc1c(C(N)=O)cc(C)c(C(=O)NC2CC3CCC(C2)N3c2ccc(C(=O)C3CC3)cn2)c1Cl` (stereo partly drawn) [3-chloro-N4-{8-[5-(cyclopropylcarbonyl)pyridin-2-yl]-8-azabicyclo[3.2.1]oct-3-endo-yl}-5-methyl-2-{[(1R)-1-methylpropyl]amino}benzene-1,4-dicarboxamide] had an IC50 of less than 500 nM. For `COc1cccc(C(=O)NC2CC3CCC(C2)N3c2ccc(C(=O)NC3CCCNC3)cn2)c1C` (stereo not drawn) [6-[3-endo-({[2-methyl-3-(methyloxy)phenyl]carbonyl}amino)-8-azabicyclo[3.2.1]oct-8-yl]-N-piperidin-3-ylpyridine-3-carboxamide], the IC50 lay in the range of 500 to 999 nM.

`COc1ccc(Nc2cc(C(=O)N[C@H]3C[C@H]4CC[C@@H](C3)N4c3ccc(C(C)=O)cn3)ccc2C(N)=O)cc1OCCN1CCOCC1` [N4-[8-(5-acetylpyridin-2-yl)-8-azabicyclo[3.2.1]oct-3-endo-yl]-2-({4-(methyloxy)-3-[(2-morpholin-4-ylethyl)oxy]phenyl}amino)benzene-1,4-dicarboxamide]: the IC50 was less than 500 nM.

`CC(=O)c1ccc(N2[C@@H]3CC[C@H]2C[C@@H](NC(=O)c2ccc(C(N)=O)c(NCC4CCNC4)c2)C3)nc1` (stereo partly drawn) [N4-[8-(5-acetylpyridin-2-yl)-8-azabicyclo[3.2.1]oct-3-endo-yl]-2-[(pyrrolidin-3-ylmethyl)amino]benzene-1,4-dicarboxamide] came in with an IC50 of less than 500 nM. In turn, `NC(=O)c1cc(Br)c(C(=O)N[C@H]2C[C@H]3CC[C@@H](C2)N3c2ccc(C(=O)C3CC3)cn2)cc1N` [5-amino-2-bromo-N-{8-[5-(cyclopropylcarbonyl)pyridin-2-yl]-8-azabicyclo[3.2.1]oct-3-endo-yl}benzene-1,4-dicarboxamide] registered an IC50 of less than 500 nM.

Compound `COCCC(=O)c1ccc(N2[C@@H]3CC[C@H]2C[C@@H](NC(=O)c2ccc(C(N)=O)c(NCC4CC4)c2)C3)nc1` [2-[(cyclopropylmethyl)amino]-N4-(8-{5-[3-(methyloxy)propanoyl]pyridin-2-yl}-8-azabicyclo[3.2.1]oct-3-endo-yl)benzene-1,4-dicarboxamide] came in with an IC50 of less than 500 nM. `COc1cccc(C(=O)N[C@H]2C[C@H]3CC[C@@H](C2)N3c2ccc(C(=O)NCc3ccco3)cn2)c1C` [N-(furan-2-ylmethyl)-6-[3-endo-({[2-methyl-3-(methyloxy)phenyl]carbonyl}amino)-8-azabicyclo[3.2.1]oct-8-yl]pyridine-3-carboxamide] gave an IC50 of less than 500 nM. For the compound `CC(=O)c1ccc(N2[C@@H]3CC[C@H]2C[C@@H](NC(=O)c2ccc(C(N)=O)c(NCCC(F)(F)F)c2)C3)nc1` [N4-[8-(5-acetylpyridin-2-yl)-8-azabicyclo[3.2.1]oct-3-endo-yl]-2-[(3,3,3-trifluoropropyl)amino]benzene-1,4-dicarboxamide], the IC50 was less than 500 nM. The value for `COc1cc(F)ccc1CNC(=O)c1ccc(N2[C@@H]3CC[C@H]2C[C@@H](NC(=O)c2cccc(OC)c2C)C3)nc1` [N-{[4-fluoro-2-(methyloxy)phenyl]methyl}-6-[3-endo-({[2-methyl-3-(methyloxy)phenyl]carbonyl}amino)-8-azabicyclo[3.2.1]oct-8-yl]pyridine-3-carboxamide] was 1000 to 2000 nM; that for `CC(=O)c1ccc(N2[C@@H]3CC[C@H]2C[C@@H](NC(=O)c2ccc(C(N)=O)c(NCC(F)(F)C(F)(F)F)c2)C3)nc1` [N4-[8-(5-acetylpyridin-2-yl)-8-azabicyclo[3.2.1]oct-3-endo-yl]-2-[(2,2,3,3,3-pentafluoropropyl)amino]benzene-1,4-dicarboxamide] was less than 500 nM. The value for `COc1ccc(CNC(=O)c2ccc(N3[C@@H]4CC[C@H]3C[C@@H](NC(=O)c3cccc(OC)c3C)C4)nc2)c(F)c1` [N-{[2-fluoro-4-(methyloxy)phenyl]methyl}-6-[3-endo-({[2-methyl-3-(methyloxy)phenyl]carbonyl}amino)-8-azabicyclo[3.2.1]oct-8-yl]pyridine-3-carboxamide] was less than 500 nM; that for `Cc1cc(C(N)=O)c(CC(C)C)cc1C(=O)N[C@H]1C[C@H]2CC[C@@H](C1)N2c1ccc(C(=O)C2CC2)cn1` [N-{8-(5-(cyclopropylcarbonyl)pyridin-2-yl]-8-azabicyclo[3.2.1]oct-3-endo-yl}-2-methyl-5-(2-methylpropyl)benzene-1,4-dicarboxamide] was less than 500 nM. With `CC(=O)c1ccc(N2[C@@H]3CC[C@H]2C[C@@H](NC(=O)c2ccc(C(N)=O)c(N4CCC4)c2)C3)nc1` [N4-[8-(5-acetylpyridin-2-yl)-8-azabicyclo[3.2.1]oct-3-endo-yl]-2-azetidin-1-ylbenzene-1,4-dicarboxamide], the IC50 lay in the range of 2000 to 10000 nM. Regarding `COc1ccc(CNC(=O)c2ccc(N3[C@@H]4CC[C@H]3C[C@@H](NC(=O)c3cccc(OC)c3C)C4)nc2)cc1F` [N-{[3-fluoro-4-(methyloxy)phenyl]methyl}-6-[3-endo-({[2-methyl-3-(methyloxy)phenyl]carbonyl}amino)-8-azabicyclo[3.2.1]oct-8-yl]pyridine-3-carboxamide], the IC50 was less than 500 nM. The value for `Cc1c(OC(N)=O)cccc1C(=O)N[C@H]1C[C@H]2CC[C@@H](C1)N2c1ccc(C(=O)NCc2ccccc2)cn1` [2-methyl-3-({[8-(5-{[(phenylmethyl)amino]carbonyl}pyridin-2-yl)-8-azabicyclo[3.2.1]oct-3-endo-yl]amino}carbonyl)phenyl carbamate] was 2000 to 10000 nM; that for `COc1cccc(C(=O)N[C@H]2C[C@H]3CC[C@@H](C2)N3c2ccc(C(=O)NCc3c(F)ccc(F)c3Cl)cn2)c1C` [N-[(2-chloro-3,6-difluorophenyl)methyl]-6-[3-endo-({[2-methyl-3-(methyloxy)phenyl]carbonyl}amino)-8-azabicyclo[3.2.1]oct-8-yl]pyridine-3-carboxamide] was less than 500 nM. With `CCC(CC)Nc1cc(C(=O)N[C@H]2C[C@H]3CC[C@@H](C2)N3c2ccc(C(C)=O)cn2)ccc1C(N)=O` [N4-[8-(5-acetylpyridin-2-yl)-8-azabicyclo[3.2.1]oct-3-endo-yl]-2-[(1-ethylpropyl)amino]benzene-1,4-dicarboxamide], the IC50 is less than 500 nM. With `COc1cccc(C(=O)N[C@H]2C[C@H]3CC[C@@H](C2)N3c2ccc(C(N)=O)cn2)c1F` [6-[3-endo-({[2-fluoro-3-(methyloxy)phenyl]carbonyl}amino)-8-azabicyclo[3.2.1]oct-8-yl]pyridine-3-carboxamide], the IC50 lay within 2000 to 10000 nM.

In turn, `CCC(C)Nc1cc(C(=O)N[C@H]2C[C@H]3CC[C@@H](C2)N3c2ccc(C(=O)C3CC3)cn2)ccc1C(N)=O` (stereo partly drawn) [N4-{8-[5-(cyclopropylcarbonyl)pyridin-2-yl]-8-azabicyclo[3.2.1]oct-3-endo-yl}-2-[(1-methylpropyl)amino]benzene-1,4-dicarboxamide] showed an IC50 of less than 500 nM.

Turning to `CC(C)[C@@H](C)Nc1cc(C(=O)NC2CC3CCC(C2)N3c2ccc(C(=O)C3CC3)cn2)c(Br)cc1C(N)=O` (stereo partly drawn) [2-bromo-N-{8-[5-(cyclopropylcarbonyl)pyridin-2-yl]-8-azabicyclo[3.2.1]oct-3-endo-yl}-5-{[(1R)-1 2-dimethylpropyl]amino}benzene-1,4-dicarboxamide], the IC50 is less than 500 nM. As to `CCC(CC)Nc1cc(C(=O)NC2CC3CCC(C2)N3c2ccc(C(=O)N[C@@H]3CCN(C(C)C)C3)cn2)c(C)cc1C(N)=O` (stereo partly drawn) [5-[(1-ethylpropyl)amino]-2-methyl-N-{8-[5-({[(3R)-1-(1-methylethyl)pyrrolidin-3-yl]amino}carbonyl)pyridin-2-yl]-8-azabicyclo[3.2.1]oct-3-endo-yl}benzene-1,4-dicarboxamide], the half-inhibitory concentration (IC50) is less than 500 nM.

Consider `CSc1cccc(C(=O)NC2CC3CCC(C2)N3c2ccc(C(=O)N[C@@H](C)c3ccc(N4CCN(C)CC4)cc3)cn2)c1C` (stereo partly drawn) [6-[3-endo-({[2-methyl-3-(methylthio)phenyl]carbonyl}amino)-8-azabicyclo[3.2.1]oct-8-yl]-N-{(1S)-1-[4-(4-methylpiperazin-1-yl)phenyl]ethyl}pyridine-3-carboxamide], for which the IC50 was in the range of 500 to 999 nM.
